{"source": "patent US20220280468A1", "about": "“METHOD FOR PREVENTING OCCURRENCE OF CARDIOVASCULAR EVENT IN MULTIPLE RISK PATIENT” (MOCHIDA PHARMACEUTICAL CO., LTD., priority 2006, published 2022)", "key": {"[1]": {"system": "cardiovascular events in hypercholesterolemia patients", "experiment": "JELIS partial analysis: occurrence of cardiovascular events in primary prevention hypercholesterolemia patients by risk factors", "type": "in vivo, human", "conditions": "for Incidence in the EPA-E group (cases of occurrence/all cases) / Incidence in the EPA-E group (%): with HMG-CoA RI base drug; for Rate of suppression of cardiovascular event occurrence after correcting the dispersion between groups: end of trial", "excerpt": "This trial corresponds to a partial analysis of the results obtained in JELIS (Japan EPA Lipid Intervention Study) which is a large scale clinical trial of high purity EPA preparation which was presented in The […] 2005 Annual Meeting (for general information on JELIS, see Medical Tribune, issue of Nov. 17, 2005, Feature article 3, pp. 75-76).\nMore specifically, for the EPA-E group (7503 cases) and the control group (7478 cases) evaluated for the primary prevention effect in the 18,645 subject patients of the JELIS trial (EPA-E group (9,326 cases) and control group (9,319 cases)), occurrence of the cardiovascular events was observed and analysed for 5 years from the start of the administration in relation to the number of risk factors at the registration as defined by the following (1) to (4): • (1) obesity: body mass index (BMI) of at least 25; • (2) hypertension or prehypertension: systolic blood pressure (SBP) of at least 140 mmHg or diastolic blood pressure (DBP) of at least 90 mmHg; • (3) diabetes, prediabetes, or abnormal glucose tolerance: fasting blood glucose (FBS) of at least 126 mg/dL or hemoglobin Alc (HbAlc) of at least 6.5%; • (4) hypertriglyceridemia or low HDL cholesterolemia: a triglyceride (TG) of at least 150 mg/dL or a HDL-C of less than 40 mg/dL.\nThe EPA-E group was orally administered with Epadel (Mochida Pharmaceutical Co., Ltd.) typically at an adult dose of 600 mg per administration and 3 times a day after the meal. However, in the case of abnormal serum TG, the dose could be increased to 900 mg per administration and 3 times a day. In both groups, pravastatin sodium (Mevalotin™ tablets and fine granules, Daiichi Sankyo Co., Ltd.), simvastatin (Lipovas™ tablets, Banyu Pharmaceutical Co., Ltd.), or atorvastatin calcium hydrate (Lipitor™ tablets, Astellas Pharma Inc. and Pfizer Inc.) was used for the base drug, and these drugs were orally administered according to the prescribed dosage regimen. More specifically, pravastatin sodium was orally administered at a daily dose of 10 to 20 mg in a single dose or two divided doses; simvastatin was orally administered at a daily dose of 5 to 20 mg in a single dose; atorvastatin calcium hydrate was orally administered at a daily dose of 10 to 40 mg in a single dose.\nThe number of occurrence of cardiovascular events in the observation period of 5 years, incidence (%), and rate of suppression of the incidence of the cardiovascular events in the EPA-E group with respect to the control group are shown in Table 1 for each number of risk factors. The rate of suppression of the incidence of the cardiovascular events was calculated by the formula: [{(incidence in the control group)−(incidence in the EPA-E group)}/incidence in the control group]×100.\nFrom the results of the trial as described above, the number of occurrence of cardiovascular events in the observation period of 5 years, incidence (%), and rate of suppression of the incidence of the cardiovascular events in the EPA-E group with respect to the control group were calculated for the male patients having at least two risk factors. (The calculation was conducted by the same procedure as described above.)\n(The calculation was conducted by the same procedure as described above.)"}, "[2]": {"system": "cardiac events and serum lipids in hyperlipidemia patients", "conditions": "cited from earlier work"}, "[3]": {"conditions": "1-2 risk factors, 5 years observation"}, "[4]": {"conditions": "1-3 risk factors, 5 years observation"}, "[5]": {"conditions": "1-4 risk factors, 5 years observation"}, "[6]": {"conditions": "1 risk factor, 5 years observation"}, "[7]": {"conditions": "2-3 risk factors, 5 years observation"}, "[8]": {"conditions": "2-4 risk factors, 5 years observation"}, "[9]": {"conditions": "2 risk factors, 5 years observation"}, "[10]": {"conditions": "3-4 risk factors, 5 years observation"}, "[11]": {"conditions": "3 risk factors, 5 years observation"}, "[12]": {"conditions": "TG of at least 150 mg/dL and HDL-C of less than 40 mg/dL"}, "[13]": {"conditions": "male patients with two or more risk factors"}, "[14]": {"conditions": "male patients, 2-4 risk factors, 5 years observation"}, "[15]": {"conditions": "patients with TG of at least 150 mg/dL and HDL-C of less than 40 mg/dL, 5 years"}, "[16]": {"conditions": "EPA-E group (with HMG-CoA RI), Non-Patent Document 3"}}, "data": [{"smiles": "CC/C=C\\C/C=C\\C/C=C\\C/C=C\\C/C=C\\CCCC(=O)OCC", "note": "[EPA-E, ethyl icosapentate]", "values": [{"measurement": "Rate of Suppression of cardiovascular event incidence vs control group", "setting": "[1]; 0 risk factors, 5 years", "result": 22, "unit": "%"}, {"measurement": "Incidence in the EPA-E group (cases of occurrence/all cases)", "setting": "[1]; 0 risk factors, 5 years observation", "result": "11/1326"}, {"measurement": "Rate of Suppression of cardiovascular event incidence vs control group", "setting": "[1]; 1-2 risk factors, 5 years", "result": 21, "unit": "%"}, {"measurement": "Incidence in the EPA-E group (%)", "setting": "[1]; [3]", "result": "(1.3) %"}, {"measurement": "Incidence in the EPA-E group (cases of occurrence/all cases)", "setting": "[1]; [3]", "result": "59/4706"}, {"measurement": "Rate of Suppression of cardiovascular event incidence vs control group", "setting": "[1]; 1-3 risk factors, 5 years", "result": 18, "unit": "%"}, {"measurement": "Incidence in the EPA-E group (%)", "setting": "[1]; [4]", "result": "(1.5) %"}, {"measurement": "Incidence in the EPA-E group (cases of occurrence/all cases)", "setting": "[1]; [4]", "result": "87/5935"}, {"measurement": "Rate of Suppression of cardiovascular event incidence vs control group", "setting": "[1]; 1-4 risk factors, 5 years", "result": 18, "unit": "%"}, {"measurement": "Incidence in the EPA-E group (%)", "setting": "[1]; [5]", "result": "(1.5) %"}, {"measurement": "Incidence in the EPA-E group (cases of occurrence/all cases)", "setting": "[1]; [5]", "result": "93/6177"}, {"measurement": "Rate of Suppression of cardiovascular event incidence vs control group", "setting": "[1]; 1 risk factor, 5 years", "result": 15, "unit": "%"}, {"measurement": "Incidence in the EPA-E group (%)", "setting": "[1]; [6]", "result": "(1.0) %"}, {"measurement": "Incidence in the EPA-E group (cases of occurrence/all cases)", "setting": "[1]; [6]", "result": "25/2468"}, {"measurement": "Rate of Suppression of cardiovascular event incidence vs control group", "setting": "[1]; 2-3 risk factors, 5 years", "result": 16, "unit": "%"}, {"measurement": "Incidence in the EPA-E group (%)", "setting": "[1]; [7]", "result": "(1.8) %"}, {"measurement": "Incidence in the EPA-E group (cases of occurrence/all cases)", "setting": "[1]; [7]", "result": "62/3467"}, {"measurement": "Rate of Suppression of cardiovascular event incidence vs control group", "setting": "[1]; 2-4 risk factors, 5 years", "result": 18, "unit": "%"}, {"measurement": "Incidence in the EPA-E group (%)", "setting": "[1]; [8]", "result": "(1.8) %"}, {"measurement": "Incidence in the EPA-E group (cases of occurrence/all cases)", "setting": "[1]; [8]", "result": "68/3709"}, {"measurement": "Rate of Suppression of cardiovascular event incidence vs control group", "setting": "[1]; 2 risk factors, 5 years", "result": 23, "unit": "%"}, {"measurement": "Incidence in the EPA-E group (%)", "setting": "[1]; [9]", "result": "(1.5) %"}, {"measurement": "Incidence in the EPA-E group (cases of occurrence/all cases)", "setting": "[1]; [9]", "result": "34/2238"}, {"measurement": "Rate of Suppression of cardiovascular event incidence vs control group", "setting": "[1]; 3-4 risk factors, 5 years", "result": 14, "unit": "%"}, {"measurement": "Incidence in the EPA-E group (%)", "setting": "[1]; [10]", "result": "(2.3) %"}, {"measurement": "Incidence in the EPA-E group (cases of occurrence/all cases)", "setting": "[1]; [10]", "result": "34/1471"}, {"measurement": "Rate of Suppression of cardiovascular event incidence vs control group", "setting": "[1]; 3 risk factors, 5 years", "result": 5, "unit": "%"}, {"measurement": "Incidence in the EPA-E group (%)", "setting": "[1]; [11]", "result": "(2.3) %"}, {"measurement": "Incidence in the EPA-E group (cases of occurrence/all cases)", "setting": "[1]; [11]", "result": "28/1229"}, {"measurement": "Rate of Suppression of cardiovascular event incidence vs control group", "setting": "[1]; 4 risk factors, 5 years", "result": 40, "unit": "%"}, {"measurement": "Incidence in the EPA-E group (cases of occurrence/all cases)", "setting": "[1]; 4 risk factors, 5 years observation", "result": "6/242"}, {"measurement": "Effect on occurrence of cardiovascular events (in words)", "setting": "[1]; [12]", "result": "significantly suppressed occurrence of cardiovascular events"}, {"measurement": "Occurrence of fatal events in the EPA-E group", "setting": "[1]; [12]", "result": "occurrence of fatal events was not found"}, {"measurement": "Time from start of administration after which decrease in cardiovascular event incidence was significant", "setting": "[1]; [12]", "result": "≥ 2", "unit": "years"}, {"measurement": "Rate of suppression of cardiovascular event occurrence after correcting the dispersion between groups", "setting": "[1]; TG of at least 150 mg/dL and HDL-C of less than 40 mg/dL, FIG. 2", "result": 53, "unit": "%"}, {"measurement": "Effect on occurrence of cardiovascular events (in words)", "setting": "[1]; [13]", "result": "significantly suppressed the occurrence of cardiovascular events"}, {"measurement": "Time from start of administration after which decrease in cardiovascular event incidence was significant", "setting": "[1]; [13]", "result": "≥ 2", "unit": "years"}, {"measurement": "Rate of suppression of cardiovascular event occurrence after correcting the dispersion between groups", "setting": "[1]; male patients with two or more risk factors, FIG. 1", "result": 55, "unit": "%"}, {"measurement": "Incidence in the EPA-E group (%)", "setting": "[1]; [14]", "result": "(1.8) %"}, {"measurement": "Incidence in the EPA-E group (cases of occurrence/all cases)", "setting": "[1]; [14]", "result": "19/1065"}, {"measurement": "Rate of Suppression of cardiovascular event incidence vs control group", "setting": "[1]; male patients, 2-4 risk factors, 5 years, uncorrected", "result": 56, "unit": "%"}, {"measurement": "Suppression of occurrence of cardiovascular events vs control group", "setting": "[1]; patients with HDL-C of less than 40 mg/dL, uncorrected", "result": 35, "unit": "%"}, {"measurement": "Rate of Suppression of cardiovascular event incidence vs control group", "setting": "[1]; patients with TG of at least 150 mg/dL and HDL-C of less than 40 mg/dL, 5 years, uncorrected", "result": 48, "unit": "%"}, {"measurement": "Incidence in the EPA-E group (%)", "setting": "[1]; [15]", "result": "(2.3) %"}, {"measurement": "Incidence in the EPA-E group (cases of occurrence/all cases)", "setting": "[1]; [15]", "result": "11/482"}, {"measurement": "Suppression of occurrence of cardiovascular events vs control group", "setting": "[1]; patients with triglyceride of at least 150 mg/dL, uncorrected", "result": 15, "unit": "%"}, {"measurement": "Change of HDL-cholesterol value", "setting": "[2]; EPA-E group (with HMG-CoA RI), Non-Patent Document 2", "result": "slight"}, {"measurement": "Change in HDL-C", "setting": "[2]; [16]", "result": "little change"}, {"measurement": "Decrease of LDL-cholesterol", "setting": "[2]; [16]", "result": 25, "unit": "%"}, {"measurement": "Decrease of total cholesterol", "setting": "[2]; [16]", "result": 19, "unit": "%"}, {"measurement": "Reduction of LDL-cholesterol value", "setting": "[2]; EPA-E group (with HMG-CoA RI), after 5 years, Non-Patent Document 2", "result": 26, "unit": "%"}, {"measurement": "Decrease of triglyceride", "setting": "[2]; EPA-E group (with HMG-CoA RI), significant, Non-Patent Document 3", "result": 9, "unit": "%"}, {"measurement": "Incidence of events vs control group (in words)", "setting": "[2]; analysis limited to the primary prevention patients", "result": "this difference was not statistically significant"}, {"measurement": "Suppression of cardiac events (in words)", "setting": "[2]; total of primary and secondary prevention patients, and secondary prevention patients", "result": "statistically significant suppression"}]}]}
